Source: article PMC9182007, “Statistical Methods in the Study of Protein Binding and Its Relationship to Drug Bioavailability in Breast Milk” (Molecules, 2022)
Read-outs that look alike come from different tables or passages of the source.

Legend:
[1] = target: T1, bovine serum albumin (BSA) (Bos taurus, UniProt P02769); assay: NP TLC on plates impregnated with bovine serum albumin; assay type: binding; details: for NP (Rf value from the NP plate impregnated with 2 mg/mL BSA solution): Table S8, external group; for NP (Rf, BSA-impregnated NP plate): Table S3, NP plate impregnated with 2 mg/mL BSA, pH 7.4 mobile phase
T1 construct: purchased Sigma Aldrich
T1 sequence (P02769 25-607): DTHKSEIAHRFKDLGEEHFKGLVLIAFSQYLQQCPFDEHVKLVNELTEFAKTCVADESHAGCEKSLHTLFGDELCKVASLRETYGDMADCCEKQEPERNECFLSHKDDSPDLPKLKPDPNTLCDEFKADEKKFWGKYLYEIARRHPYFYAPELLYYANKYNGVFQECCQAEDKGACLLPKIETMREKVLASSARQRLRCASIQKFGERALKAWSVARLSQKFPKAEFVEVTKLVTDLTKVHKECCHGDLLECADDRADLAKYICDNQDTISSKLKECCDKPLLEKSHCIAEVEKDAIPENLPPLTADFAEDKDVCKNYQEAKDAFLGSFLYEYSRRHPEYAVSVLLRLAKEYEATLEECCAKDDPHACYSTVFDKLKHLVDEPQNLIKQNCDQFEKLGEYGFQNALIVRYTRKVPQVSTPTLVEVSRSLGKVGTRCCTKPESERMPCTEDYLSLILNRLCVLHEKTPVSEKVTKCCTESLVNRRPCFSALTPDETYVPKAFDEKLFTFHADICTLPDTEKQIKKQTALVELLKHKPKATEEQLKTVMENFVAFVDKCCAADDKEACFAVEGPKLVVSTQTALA

[2] = target: T1, bovine serum albumin (BSA); assay: RP TLC on plates impregnated with bovine serum albumin; assay type: binding; details: for RP (Rf value from the RP plate impregnated with 2 mg/mL BSA solution): Table S8, external group; for RP (Rf, BSA-impregnated RP plate): Table S4, RP plate impregnated with 2 mg/mL BSA, pH 7.4 mobile phase
[3] = NP TLC on non-impregnated control plates; assay type: physicochemical; details: for CNP (Rf value from the non-impregnated NP plate, control): Table S8, external group; for CNP (Rf, control NP plate): Table S3, non-impregnated NP plate, acetonitrile/acetate buffer pH 7.4/methanol 60:20:20
[4] = RP TLC on non-impregnated control plates; assay type: physicochemical; details: for CRP (Rf value from the non-impregnated RP plate, control): Table S8, external group; for CRP (Rf, control RP plate): Table S4, non-impregnated RP plate, acetonitrile/acetate buffer pH 7.4/methanol 60:20:20
[5] = HPLC on immobilized artificial membrane column (HPLCIAM); assay type: physicochemical; details: for log kIAM / kIAM: Table S9, external group; for log k IAM: Table S5, IAM column, pH 7.4; for k IAM: Table S5, retention factor, IAM column, phosphate buffer pH 7.4/acetonitrile 80:20
[6] = target: T2, human serum albumin (HSA) (Homo sapiens, UniProt P02768); details: for k HSA: Table S5, retention factor, HSA column, pH 7.4, 25 degrees Celsius
T2 sequence (P02768 25-609): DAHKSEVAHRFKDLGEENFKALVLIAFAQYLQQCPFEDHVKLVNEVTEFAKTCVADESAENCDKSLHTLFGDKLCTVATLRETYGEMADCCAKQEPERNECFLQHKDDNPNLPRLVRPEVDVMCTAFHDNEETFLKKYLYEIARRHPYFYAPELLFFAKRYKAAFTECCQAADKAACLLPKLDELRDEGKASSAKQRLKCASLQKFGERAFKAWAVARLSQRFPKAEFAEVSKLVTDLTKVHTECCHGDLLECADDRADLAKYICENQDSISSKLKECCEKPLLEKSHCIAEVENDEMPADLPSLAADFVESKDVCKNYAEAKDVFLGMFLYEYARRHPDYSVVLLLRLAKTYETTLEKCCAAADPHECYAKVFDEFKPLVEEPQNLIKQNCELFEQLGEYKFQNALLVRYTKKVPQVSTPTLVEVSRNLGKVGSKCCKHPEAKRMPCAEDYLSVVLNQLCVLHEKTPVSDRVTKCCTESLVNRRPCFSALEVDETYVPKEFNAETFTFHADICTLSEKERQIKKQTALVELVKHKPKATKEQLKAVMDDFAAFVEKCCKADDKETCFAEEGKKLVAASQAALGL

[7] = Table S6, external group (n = 38); cited from earlier work
plasma protein = details: ref DrugBank [7], cited from earlier work
[8] = ref DrugBank [7], cited from earlier work
[9] = target: T2, human serum albumin (HSA); assay: in vitro; details: immobilized hsa column, pH 7.4
[10] = Table S6, external group (n = 38), given as fraction
[11] = Table S6, external group, coded 1/0
[12] = human, immobilized hsa column, pH 7.4
[13] = Table S1, plasma protein binding given as fraction

NP (Rf value from the NP plate impregnated with 2 mg/mL BSA solution) [1]	RP (Rf value from the RP plate impregnated with 2 mg/mL BSA solution) [2]	CNP (Rf value from the non-impregnated NP plate, control) [3]	CRP (Rf value from the non-impregnated RP plate, control) [4]	log kIAM [5]	kHSA ([6]; Table S9, external group)	log kHSA ([6]; Table S9, external group)	SMILES	M/P [7]	PB (plasma protein; [10])	CNS+/- [8, 11]	kIAM [5]	log kHSA [6, 12]	other results
0.67	0.75	0.67	0.74	0.48	1.18	0.07	CCCCN1CCCCC1C(=O)Nc1c(C)cccc1C (stereo not drawn) [bupivacaine]	0.37	0.95	1	–	–	–
–	–	–	–	–	–	–	CN1CCC(=C2c3ccccc3CC(=O)c3sccc32)CC1 [ketotifen]	–	–	–	–	–	NP (Rf, BSA-impregnated NP plate) [1]: 0.36; RP (Rf, BSA-impregnated RP plate) [2]: 0.74; CNP (Rf, control NP plate) [3]: 0.34; CRP (Rf, control RP plate) [4]: 0.75; log k IAM [5]: 1.34; k IAM [5]: 22.04; k HSA [6]: 5.83; chromatographic logD [9]: 0.77; PB (plasma protein; [13]): 0.75; CNS+/- ([8]; Table S1, coded 1/0): 1
0.92	0.92	0.92	0.92	0.21	0.07	-1.16	CC[C@@H](C(N)=O)N1CCCC1=O [levetiracetam]	1.00	0.10	1	1.62	–	–
0.97	0.86	0.97	0.86	0.47	3.55	0.55	CCOC(=O)C1=C(C)NC(C)=C(C(=O)OC)C1c1cccc([N+](=O)[O-])c1 (stereo not drawn) [nitrendipine]	0.30	0.99	0	2.98	–	–
0.92	0.95	0.92	0.95	0.28	0.16	–	CC(N)C12CC3CC(CC(C3)C1)C2 (stereo not drawn) [rimantadine]	2.00	–	1	1.91	–	–
–	–	–	–	–	–	–	CCCc1nn(C)c2c(=O)[nH]c(-c3cc(S(=O)(=O)N4CCN(C)CC4)ccc3OCC)nc12 [sildenafil]	–	–	–	–	–	NP (Rf, BSA-impregnated NP plate) [1]: 0.67; RP (Rf, BSA-impregnated RP plate) [2]: 0.76; CNP (Rf, control NP plate) [3]: 0.69; CRP (Rf, control RP plate) [4]: 0.77; log k IAM [5]: 1.15; k IAM [5]: 14.26; k HSA [6]: 1.62; chromatographic logD [9]: 0.21; PB (plasma protein; [13]): 0.96; CNS+/- ([8]; Table S1, coded 1/0): 1

SMILES	NP (Rf value from the NP plate impregnated with 2 mg/mL BSA solution) [1]	RP (Rf value from the RP plate impregnated with 2 mg/mL BSA solution) [2]	CNP (Rf value from the non-impregnated NP plate, control) [3]	CRP (Rf value from the non-impregnated RP plate, control) [4]	log kIAM [5]	kHSA ([6]; Table S9, external group)	log kHSA ([6]; Table S9, external group)	M/P [7]	PB (plasma protein; [10])	CNS+/- [8, 11]	kIAM [5]	log kHSA [6, 12]	other results
CN(C)CCC=C1c2ccccc2COc2ccccc21 [doxepin]	0.31	0.54	0.30	–	0.45	4.25	–	1.37	0.76	1	2.81	0.63	–
CN1CCC[C@@H]1Cc1c[nH]c2ccc(CCS(=O)(=O)c3ccccc3)cc12 [eletriptan]	–	–	–	–	0.55	3.78	–	0.25	–	1	3.57	0.58	–
CC[C@@H](CO)NCCN[C@@H](CC)CO [ethambutol]	0.21	0.95	0.19	0.97	0.34	1.73	–	1.00	–	0	2.18	0.24	–
